{"source": "patent US20240009201A1", "about": "“CYP11B2 BETA HYDROXYLASE INHIBITORS FOR HYPERTENSION” (MINERALYS THERAPEUTICS, INC., priority 2020, published 2024)", "format_in_all_cases": "in vivo", "key": {"aldosterone synthase [1]": {"target": "T1, aldosterone synthase (Homo sapiens, UniProt P19099)", "T1 construct": "from tissue; host or cells: living human subjects (endogenous adrenal enzyme)", "T1 sequence (P19099 25-503)": "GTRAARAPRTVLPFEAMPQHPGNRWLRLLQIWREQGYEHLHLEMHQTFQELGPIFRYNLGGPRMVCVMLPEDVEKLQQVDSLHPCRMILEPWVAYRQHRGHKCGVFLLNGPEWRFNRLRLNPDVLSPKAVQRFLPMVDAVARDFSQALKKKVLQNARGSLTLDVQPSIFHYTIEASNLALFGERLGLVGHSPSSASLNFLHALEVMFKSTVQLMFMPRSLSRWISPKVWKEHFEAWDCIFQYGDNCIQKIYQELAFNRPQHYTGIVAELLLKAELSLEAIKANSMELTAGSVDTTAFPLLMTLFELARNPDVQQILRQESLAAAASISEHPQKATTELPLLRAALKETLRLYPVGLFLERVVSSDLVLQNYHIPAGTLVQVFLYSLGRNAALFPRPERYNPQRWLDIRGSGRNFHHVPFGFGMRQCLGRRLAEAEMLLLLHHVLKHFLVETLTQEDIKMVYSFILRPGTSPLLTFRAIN", "test": "Randomized, double-blinded, placebo-controlled SAD and MAD study (overall findings)", "text": "Aldosterone is produced by an aldosterone synthase, encoded by the gene CYP11B2. Aldosterone synthase catalyzes the final 3 steps in aldosterone synthesis, sequentially (1) from 11-deoxycorticosterone (11-DOC) to corticosterone, (2) from corticosterone to 18-OH-corticosterone, and (3) from 18-OH-corticosterone to aldosterone. […] 11β-hydroxylase catalyzes the conversion of 11-deoxycortisol to cortisol, and 11-deoxycorticosterone (11-DOC) to corticosterone.\nBecause 11-DOC is a substrate for both CYP11B1 and CYP11B2, use of a selective aldosterone synthase inhibitor which preserves the activity of CYP11B1 is important for preventing accumulation of the precursor 11-DOC.\n(§1) Single Ascending Dose (SAD) and Multiple Ascending Dose (MAD) Study\n(§2) A randomized, double-blinded, placebo-controlled study was conducted in which 116 patients were randomized and 87 received the compound of Formula A in the form of an HBr salt."}, "CYP11B2": {"target": "T2, CYP11B2 (Mus musculus, UniProt P15539)", "T2 construct": "from tissue; host or cells: living mice (endogenous enzyme); obese AY mice, Balb/C mice (Jackson Labs #000651)", "T2 sequence (P15539 25-500)": "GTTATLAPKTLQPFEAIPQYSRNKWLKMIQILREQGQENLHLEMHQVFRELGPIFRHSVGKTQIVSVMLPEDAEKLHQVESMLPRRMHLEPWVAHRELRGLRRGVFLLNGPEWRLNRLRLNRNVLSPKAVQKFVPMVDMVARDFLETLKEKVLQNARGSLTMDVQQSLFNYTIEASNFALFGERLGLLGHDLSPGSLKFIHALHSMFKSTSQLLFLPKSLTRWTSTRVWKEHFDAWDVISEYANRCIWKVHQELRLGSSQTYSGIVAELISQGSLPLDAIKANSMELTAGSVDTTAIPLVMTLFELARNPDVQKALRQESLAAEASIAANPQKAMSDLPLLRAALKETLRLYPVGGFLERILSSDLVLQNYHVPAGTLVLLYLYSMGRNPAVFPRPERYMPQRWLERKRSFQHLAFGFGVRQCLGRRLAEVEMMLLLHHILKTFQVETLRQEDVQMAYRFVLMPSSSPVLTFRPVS", "test": "Radio-telemetry blood pressure in low renin hypertension animal model (Ay mice)", "details": "3 mg/kg/day via mini-osmotic pump, 7 days, FIG. 14", "protocol": "Purpose: To determine whether CYP11B2 blockade (via aldosterone synthase inhibition) improves cardiovascular function in an animal model for low renin hypertension.\nAnimal Model: All experiments were conducted in 12-16-week-old obese AY female mice.\nTelemetry Protocol: The telemetry protocol is illustrated in FIG. 13.\nTreatment Protocol: Male and female Balb/C mice (Jackson Labs, Bar Harbor, ME, Catalog #000651) at 10 weeks of age were utilized for all studies. Mice were implanted with indwelling telemeters (carotid catheter) (DSI© Model #PA-C10, New Brighton, MN) under isoflurane anesthesia as previously described. Following a 7-day recovery period baseline BP measurements were consciously recorded for 7 days while mice were on normal salt diet (NS) (0.2% NaCl, Teklad #2918, Envigo, United Kingdom). Mice were then treated with the test article (compound of formula (A), LCI699 or CIN-107, calculated to deliver 3 mg/kg/day) infused via an implanted mini-osmotic pump for an additional 7 days.\nBlood pressure measurement: For each protocol described in FIG. 13, 12 mice were used to record systolic, diastolic, mean arterial pressure heart rate and activity via radio-telemetry. Telemetry transmitters were implanted in the carotid artery at 12 weeks of age. After 2 weeks of recovery from surgery, baseline blood pressure was recorded for 7 consecutive days. Animals were then submitted to the treatment (compound of formula (A) HBr/LCI/CIN).\nQuantification of the effects of compound of formula (A) HBr, LCI, CIN on the degree of RAAS activation: Blood was collected from all the treated mice to investigate the effects of the aldosterone synthase inhibitors on plasma aldosterone, Angiotensin II and indices of RAS activation via LC-MS/MS."}, "aldosterone synthase [2]": {"target": "T1, aldosterone synthase", "test": "Single ascending dose (SAD) study", "protocol": "as §1, §2\nExposure above about 3-4 times the inhibition constant (Ki) was associated with duration of aldosterone suppression (FIG. 4)."}, "aldosterone synthase [3]": {"target": "T1, aldosterone synthase", "test": "Multiple ascending dose (MAD) study", "protocol": "as §1, §2"}}, "note": "Where a name gives a salt, the structure may show the parent alone."}
{"smiles": "CC(=O)N[C@H]1CC[C@H](NC(=O)CN2CCN(c3nncc(-c4ccc(C)cc4)n3)CC2)CC1", "note": "[compound of Formula (A), N-[trans-4-(acetylamino)cyclohexyl]-2-{4-[5-(4-methylphenyl)-1,2,4-triazin-3-yl]piperazin-1-yl}acetamide]", "values": [{"measurement": "dose range of aldosterone suppression without increase in 11-DOC or change in cortisol production (selectivity)", "setting": "aldosterone synthase [1]; in vivo", "result": "wide does range at which aldosterone is suppressed without an increase in 11-DOC or change in cortisol production"}]}
{"smiles": "CCC(=O)N[C@@H]1CCCc2c(-c3ccc4c(c3)CCC(=O)N4C)cncc21", "note": "[CIN-107]", "values": [{"measurement": "mean arterial blood pressure (MAP)", "setting": "CYP11B2", "result": "reduced MAP to a similar degree and to a value comparable to that seen in control mice"}]}
{"smiles": "CC(=O)N[C@H]1CC[C@H](NC(=O)CN2CCN(c3nncc(-c4ccc(C)cc4)n3)CC2)CC1", "note": "[Compound A HBr, N-[trans-4-(acetylamino)cyclohexyl]-2-{4-[5-(4-methylphenyl)-1,2,4-triazin-3-yl]piperazin-1-yl}acetamide monohydrobromide]", "values": [{"measurement": "clinical laboratory, vital signs, ECGs or physical examination", "setting": "aldosterone synthase [1]; SAD/MAD study", "result": "No clinically significant findings"}, {"measurement": "deaths or serious adverse events (SAEs)", "setting": "aldosterone synthase [1]; SAD/MAD study", "result": "No deaths or serious adverse events (SAEs) occurred"}, {"measurement": "effect on cortisol levels", "setting": "aldosterone synthase [1]; SAD/MAD study", "result": "no effect on cortisol levels"}, {"measurement": "hyperkalemia", "setting": "aldosterone synthase [1]; SAD/MAD study", "result": "No hyperkalemia was noted"}, {"measurement": "plasma aldosterone", "setting": "aldosterone synthase [1]; SAD/MAD study, 87 received the compound", "result": "rapid and durable reduction/suppression of plasma aldosterone"}, {"measurement": "adverse events (AEs)", "setting": "aldosterone synthase [1]; compound groups vs placebo groups", "result": "comparable between the groups receiving the compound and placebo groups"}, {"measurement": "serum cortisol", "setting": "aldosterone synthase [2]; FIG. 2 (AUC-24)", "result": "no evidence of dose-dependent reduction in serum cortisol"}, {"measurement": "exposure associated with duration of aldosterone suppression", "setting": "aldosterone synthase [2]; FIG. 4 (Cpu/Ki)", "result": "3-4 times the inhibition constant (Ki)"}, {"measurement": "duration of maximum aldosterone suppression", "setting": "aldosterone synthase [2]; FIG. 5", "result": "dose-dependent increase"}, {"measurement": "reduction of serum aldosterone", "setting": "aldosterone synthase [2]; dose of 50 mg, FIG. 1 (AUC-24)", "result": 50, "unit": "%"}, {"measurement": "11-DOC level", "setting": "aldosterone synthase [3]; 360 mg dose level, FIG. 7", "result": "Accumulation of 11-DOC"}, {"measurement": "serum aldosterone during the washout phase", "setting": "aldosterone synthase [3]; 360 mg dose, FIG. 6", "result": "overshoot in serum aldosterone"}, {"measurement": "Plasma Renin Activity (PRA)", "setting": "aldosterone synthase [3]; FIG. 9", "result": "dose-dependent increase"}, {"measurement": "dose giving 50% of maximum increase in Plasma Renin Activity (PRA)", "setting": "aldosterone synthase [3]; FIG. 9", "result": 40, "unit": "mg"}, {"measurement": "benefits on renal tubular sodium excretion", "setting": "aldosterone synthase [3]; FIG. 12", "result": "seen at lower doses than are required for stimulation of renin and accumulation of 11-DOC"}, {"measurement": "serum K+", "setting": "aldosterone synthase [3]; all doses tested, FIG. 10", "result": "physiological, non-adverse, increase in K^+"}, {"measurement": "adrenocorticotropic hormone (ACTH)-stimulated aldosterone secretion", "setting": "aldosterone synthase [3]; all doses tested, FIG. 11", "result": "suppression of adrenocorticotropic hormone (ACTH)-stimulated aldosterone secretion"}, {"measurement": "dose-effect on duration of maximum aldosterone suppression", "setting": "aldosterone synthase [3]; day 7, FIG. 8", "result": "consistent with the SAD study"}, {"measurement": "drug accumulation", "setting": "aldosterone synthase [3]; multiple dosing", "result": "little drug accumulation"}, {"measurement": "mean arterial blood pressure (MAP)", "setting": "CYP11B2", "result": "reduced MAP to a similar degree and to a value comparable to that seen in control mice"}]}
{"smiles": "N#Cc1ccc([C@H]2CCc3cncn32)c(F)c1", "note": "[LCI699]", "values": [{"measurement": "mean arterial blood pressure (MAP)", "setting": "CYP11B2", "result": "reduced MAP to a similar degree and to a value comparable to that seen in control mice"}]}
